This passage reports IC50 results from patent US20080200448A1, “New Pyridine Analogues VIII 518” (ASTRAZENECA AB, priority 2007, published 2008).

The target of the assay is T1, P2Y12 receptor (Homo sapiens, UniProt Q9H244).
T1 construct: expressed in transfected cells; host or cells: CHO cells (membrane preparation)
T1 sequence (Q9H244 whole entry): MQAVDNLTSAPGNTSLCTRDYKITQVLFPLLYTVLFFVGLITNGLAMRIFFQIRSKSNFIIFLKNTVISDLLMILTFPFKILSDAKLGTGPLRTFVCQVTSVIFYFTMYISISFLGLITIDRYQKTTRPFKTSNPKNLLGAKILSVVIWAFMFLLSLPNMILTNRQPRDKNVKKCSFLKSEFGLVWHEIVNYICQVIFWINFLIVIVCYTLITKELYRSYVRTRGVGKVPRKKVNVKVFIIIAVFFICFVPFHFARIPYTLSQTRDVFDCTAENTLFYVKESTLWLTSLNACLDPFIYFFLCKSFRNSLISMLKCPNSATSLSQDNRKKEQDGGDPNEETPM
The experiment in a line: Functional inhibition of 2-Me-S-ADP induced P2Y12 signalling (35S-GTPγS binding, cell membranes). It is filed as biochemical. As to conditions: 35S-GTPγS assay, membranes, EC80 concentration of 2-methyl-thio-adenosine diphosphate, 30° C. for 45 min; read-out: GTPγS (IC50 μM). The method, boiled down:
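Membranes (5 μg) from P2Y12-transfected CHO cells in pH 7.4 HEPES buffer with 10 μM GDP and saponin were stimulated with an EC80 of 2-methyl-thio-ADP plus compound and ^35S-GTPγS for 45 min at 30° C. Filter-retained ^35S-GTPγS was counted, normalised between agonist and no-agonist activity, and IC50 taken from a four-parameter fit.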
(In general: GTPγS is a poorly hydrolysed GTP analogue; its binding reports G protein activation.)
By IC50 is commonly meant the concentration at which inhibition is half-maximal. With `CCOC(=O)c1cc(C#N)c(N2CC(C(=O)NS(=O)(=O)Cc3ccccc3)C2)nc1CSCC` [Example 30, Ethyl 6-{3-[(benzylsulfonyl)carbamoyl]azetidin-1-yl}-5-cyano-2-[(ethylthio)methyl]nicotinate], the half-inhibitory concentration (IC50) is 0.106 µM.

As to `CCOC(=O)c1cc(C#N)c(N2CC(C(=O)NS(=O)(=O)Cc3ccccc3)C2)nc1COC(=O)CO` [Example 14, Ethyl 6-{3-[(benzylsulfonyl)carbamoyl]azetidin-1-yl}-5-cyano-2-[(glycoloyloxy)methyl]nicotinate], the concentration for half-maximal inhibition (IC50) was 0.044 µM.

Consider `CCOC(=O)c1cc(C#N)c(N2CC(C(=O)NS(=O)(=O)Cc3ccccc3)C2)nc1CN1C(=O)CCC1=O` [Example 13, Ethyl 6-{3-[(benzylsulfonyl)carbamoyl]azetidin-1-yl}-5-cyano-2-[(2,5-dioxopyrrolidin-1-yl)methyl]nicotinate], for which the IC50 was found to be 0.064 µM.

On to `CC(C)OC(=O)c1cc(Cl)c(N2CCC(C(=O)NS(=O)(=O)Cc3ccccc3)CC2)nc1CN1CCCC1=O` [Example 96, Isopropyl 6-{4-[(benzylsulfonyl)carbamoyl]piperidin-1-yl}-5-chloro-2-[(2-oxopyrrolidin-1-yl)methyl]nicotinate], for which the IC50 was determined as 0.178 µM.

Take `COc1ccc(CS(=O)(=O)NC(=O)C2CCN(c3nc(CN4CCCC4=O)c(C(=O)OC(C)C)cc3C#N)CC2)cc1` [Example 83, Isopropyl 5-cyano-6-(4-{[(4-methoxybenzyl)sulfonyl]carbamoyl}piperidin-1-yl)-2-[(2-oxopyrrolidin-1-yl)methyl]nicotinate]: the IC50 was 0.016 µM.
